Measurements: patent EP1007514B1, “HETEROCYCLIC KETONES AS NPY Y5 ANTAGONISTS” (BAYER CORPORATION, priority 1997, dated 1999)

How the values were obtained:
human Y4/PP1 = human Y4/PP1 (Homo sapiens, UniProt P50391); assay: NPY Y4/PP1 receptor membrane binding, [125I] human PP; conditions: membrane protein; 50 pM [125I] human PP; test compounds at 5 µM final concentration; read-out: IC50 (µM) NPY receptor indicated hY4/pp1
Protocol: (§1) Assays to determine binding affinity for human NPY Y2 and Y4/PP1 receptor subtypes are performed on GF/C Millipore 96-well plates pretreated with 0.02% polyethylenimine. The binding buffer for rat NPY Y2 receptor subtype binding is Krebs-Ringer bicarbonate (pH 7.4) containing 0.01% BSA and 0.005% bacitracin. Samples consist of membrane protein, 25 pM [^125I]PYY and test compounds at 5 µM final concentration. Nonspecific binding is defined by 1 µM NPY. The binding buffer for human Y4/PP1 binding consists of 137 mM NaCl, 5.4 mM KCl, 0.44 mM KH2PO4, 1.26 mM CaCl2, 0.81 mM MgSO4, 20 mM HEPES, 1 mM dithiothreitol, 0.1% bacitracin, 100 mg/l streptomycin sulfate, 1 mg/l aprotinin, 10 mg/ml soybean trypsin inhibitor and 0.3% BSA, pH 7.4. Samples consist of membrane protein, 50 pM human [^125I] human PP (hPP:NEN DuPont, Boston MA) and test compounds diluted to a final concentration of 5 µM. One µM hPP is used to define nonspecific binding. After a 2 hour incubation at room temperature with constant mixing, the samples are aspirated on a vacuum manifold, and rinsed with ice-cold binding buffer. The amount of radioactivity in each well is quantitated with either gamma counting or liquid scintillation.

[1] = target: T1, rat NPY Y5 receptor subtype (Rattus norvegicus, UniProt Q63634); assay: NPY Y5 receptor membrane binding, [125I]PYY (rat); conditions: for IC50: membrane protein, 75-100 pM [125I]PYY, 50% inhibition of specific binding, read-out: IC50 (µM) NPY receptor indicated rY5; for NPY receptor indicated rY5, %@1µM: printed in the rY5 IC50 column
T1 sequence (Q63634 1-445): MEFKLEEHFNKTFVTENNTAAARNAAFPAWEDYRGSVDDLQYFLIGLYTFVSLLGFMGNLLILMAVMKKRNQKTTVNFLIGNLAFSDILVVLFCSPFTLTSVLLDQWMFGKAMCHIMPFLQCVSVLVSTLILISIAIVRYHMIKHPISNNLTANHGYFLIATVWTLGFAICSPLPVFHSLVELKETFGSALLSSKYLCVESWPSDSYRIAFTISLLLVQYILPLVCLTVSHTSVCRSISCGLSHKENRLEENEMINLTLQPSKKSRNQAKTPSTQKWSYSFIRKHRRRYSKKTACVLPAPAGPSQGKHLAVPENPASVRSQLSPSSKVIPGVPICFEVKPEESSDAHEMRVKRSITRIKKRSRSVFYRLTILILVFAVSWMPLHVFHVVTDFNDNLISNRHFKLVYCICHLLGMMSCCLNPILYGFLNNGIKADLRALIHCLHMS
Protocol: (§2) Assays to determine human and rat NPY Y5 receptor subtype binding affinity are performed on GF/C Millipore 96-well plates pretreated with 0.02% polyethylenimine. The binding buffer is 25 mM Tris, 120 mM NaCl, 5 mM KCl, 1.2 mM KH2PO4, 2.5 mM CaCl2, 1.2 mM MgSO4, 0.1% BSA and 0.5 mg/ml bacitracin, pH 7.4. Samples consist of membrane protein, 75-100 pM [^125I] PYY (porcine, NEN-DuPont) and test compounds diluted in binding buffer. Nonspecific binding is defined by 1 µM PYY. After a 2 hour incubation at room temperature with constant mixing, the samples are aspirated on a vacuum manifold and rinsed with ice-cold binding buffer. The amount of radioactivity in each well is quantitated with either gamma counting or liquid scintillation. IC50 values, which correspond to 50% inhibition of specific binding, are determined with non-linear regression analysis.

[2] = target: T2, human NPY Y1 receptor subtype (Homo sapiens, UniProt P25929); assay: NPY Y1 receptor binding, [125I]PYY on SK-N-MC cells; conditions: test compounds at 5 µM final concentration, [125I]PYY about 50 pM, read-out: IC50 (µM) NPY receptor indicated hY1
T2 construct: host or cells: SK-N-MC cells
T2 sequence (P25929 1-384): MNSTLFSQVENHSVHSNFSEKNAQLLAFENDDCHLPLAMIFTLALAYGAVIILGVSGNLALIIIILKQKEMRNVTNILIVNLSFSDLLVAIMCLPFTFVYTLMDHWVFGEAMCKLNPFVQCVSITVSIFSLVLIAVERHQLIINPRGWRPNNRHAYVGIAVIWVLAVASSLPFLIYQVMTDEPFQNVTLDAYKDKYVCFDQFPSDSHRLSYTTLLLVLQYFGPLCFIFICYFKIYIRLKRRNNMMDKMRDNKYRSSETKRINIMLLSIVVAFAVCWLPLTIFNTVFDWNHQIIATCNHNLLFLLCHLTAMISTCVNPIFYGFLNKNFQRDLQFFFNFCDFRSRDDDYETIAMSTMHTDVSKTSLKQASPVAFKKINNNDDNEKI
Protocol: For instance, test compounds antagonistic to human NPY Y1 receptor subtype can be identified by a modified method of Gordon et al., J. Neurochem. 55:506-513,(1990), wherein SK-N-MC cells (ATCC, Rockville, ND) are plated in 24-well plates. Once confluent, the cells are rinsed with Dulbecco's phosphate buffered saline (DPBS). Cells are then preincubated in binding buffer containing serum-free DMEM, 25 mM HEPES (pH 7.3), 0.5% bovine serum albumin (BSA), 0.1% bacitracin and 0.1mM phenylmethylsulfonyl fluoride for 30 minutes at room temperature. Test compounds at a final concentration of 5 µM, and [^125I] PYY (about 50 pM:NEN-DuPont) are added to the wells, and the cells are incubated for an additional 3 hours at room temperature, followed by rinsing with ice-cold DPBS. Nonspecific binding is defined with 1 µM NPY. After lysing the cells with 1% Triton X-100, the amount of radioactivity in the lysates is quantitated with a gamma counter.

human NPY Y2 = target: T3, human NPY Y2 (Homo sapiens, UniProt P49146); assay: NPY Y2 receptor membrane binding, [125I]PYY; conditions: membrane protein; 25 pM [125I]PYY; test compounds at 5 µM final concentration; read-out: IC50 (µM) NPY receptor indicated hY2
T3 sequence (P49146 1-381): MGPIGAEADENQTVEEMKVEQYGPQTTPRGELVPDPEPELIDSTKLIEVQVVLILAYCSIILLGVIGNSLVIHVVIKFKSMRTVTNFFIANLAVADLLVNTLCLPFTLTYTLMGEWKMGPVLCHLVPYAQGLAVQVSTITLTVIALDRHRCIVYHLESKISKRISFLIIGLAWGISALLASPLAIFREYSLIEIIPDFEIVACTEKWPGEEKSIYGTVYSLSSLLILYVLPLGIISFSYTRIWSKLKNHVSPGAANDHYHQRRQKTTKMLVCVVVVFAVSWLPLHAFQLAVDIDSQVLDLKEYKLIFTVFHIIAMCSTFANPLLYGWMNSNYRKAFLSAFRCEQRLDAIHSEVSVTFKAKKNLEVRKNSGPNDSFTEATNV
Protocol: as §1, with “The binding buffer for rat NPY Y2 receptor subtype binding is Krebs-Ringer bicarbonate (pH 7.4) containing 0.01% BSA and 0.005% bacitracin.” left out

rat NPY Y5 receptor = target: T4, rat NPY Y5 receptor (Rattus norvegicus, UniProt Q63634); assay: In vitro functional assay, forskolin-stimulated cAMP in cells stably expressing the receptor; assay type: cell-based; conditions: percentage of forskolin-stimulated adenylate cyclase; 1 µM forskolin; test compound 10 µM; 80 - 120% indicates no significant agonistic effect
T4 construct: expressed in transfected cells
T4 sequence (Q63634 1-445): T1 sequence (Q63634 1-445)
Protocol: An in vitro functional assay to determine rat NPY Y5 receptor subtype binding affinity is performed by resuspending cells stably expressing the rat NPY Y5 receptor in serum-free DMEM containing 10 mM HEPES (pH 7.4) and 1 mM isobutylmethylxanthine (IBMX). One µM forskolin and test compounds at a final concentration of 10 µM are then added to the cells. After a 20 minute incubation of the samples at 37°C, the assay is stopped by placing the samples in boiling water for 3 minutes. The cAMP produced in each sample is quantitated with a radioimmunoassay kit (NEN DuPont). Data are expressed as a percentage of forskolin-stimulated adenylate cyclase. Data between 80 - 120% indicates no significant agonistic effect.

[3] = target: T5, human NPY Y5 receptor subtype (Homo sapiens, UniProt Q15761); assay: NPY Y5 receptor membrane binding, [125I]PYY (human); conditions: membrane protein; 75-100 pM [125I]PYY; 50% inhibition of specific binding; read-out: IC50 (µM) NPY receptor indicated hY5
T5 sequence (Q15761 1-445): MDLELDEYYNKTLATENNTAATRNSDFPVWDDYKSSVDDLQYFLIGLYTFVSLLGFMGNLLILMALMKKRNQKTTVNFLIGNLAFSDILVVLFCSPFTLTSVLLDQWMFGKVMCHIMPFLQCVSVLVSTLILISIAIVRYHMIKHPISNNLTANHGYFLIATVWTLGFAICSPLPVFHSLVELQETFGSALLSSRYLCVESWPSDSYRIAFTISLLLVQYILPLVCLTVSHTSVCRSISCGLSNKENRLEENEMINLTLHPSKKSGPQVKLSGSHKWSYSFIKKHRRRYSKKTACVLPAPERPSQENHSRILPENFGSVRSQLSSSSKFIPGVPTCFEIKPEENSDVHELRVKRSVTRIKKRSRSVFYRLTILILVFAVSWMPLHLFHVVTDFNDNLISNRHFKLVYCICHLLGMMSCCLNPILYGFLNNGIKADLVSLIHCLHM
Protocol: as §2

human Y4/PP1, sequence (P50391 whole entry): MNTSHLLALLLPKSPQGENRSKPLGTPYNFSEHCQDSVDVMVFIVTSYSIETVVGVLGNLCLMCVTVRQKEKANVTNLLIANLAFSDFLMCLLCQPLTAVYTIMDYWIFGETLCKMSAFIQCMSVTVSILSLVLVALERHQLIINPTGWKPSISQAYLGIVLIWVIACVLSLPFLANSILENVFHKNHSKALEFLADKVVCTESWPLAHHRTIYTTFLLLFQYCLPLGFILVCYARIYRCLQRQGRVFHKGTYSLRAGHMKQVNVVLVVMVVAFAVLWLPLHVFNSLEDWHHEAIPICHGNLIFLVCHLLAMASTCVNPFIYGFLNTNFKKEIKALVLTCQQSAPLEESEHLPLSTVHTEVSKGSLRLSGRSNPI

Compound	IC50 (human Y4/PP1) [µM]	IC50 [1] [µM]	IC50 [2] [µM]	IC50 (human NPY Y2) [µM]	% forskolin at 10 µM (rat NPY Y5 receptor) [%]	NPY receptor indicated rY5, %@1µM [1] [%@1µM]	IC50 [3] [µM]
Cc1ccc(S(=O)(=O)CC(C(=O)c2ccc3ccccc3n2)c2ccccc2)cc1 (centres unmarked) [Compound 1]	> 5	9.8	> 5	> 5	78	–	–
Cc1ccc(S(=O)(=O)CC(C(=O)c2ncc[nH]2)c2ccccc2)cc1 (centres unmarked) [Compound 3, (1H-Imidazol-2-yl)-2-phenyl-3-(toluene-4-sulfonyl)-propan-1-one]	> 5	–	–	> 5	–	30	–
Cc1ccc(SCC(C(=O)c2nc3ccccc3[nH]2)c2ccccc2)cc1 (centres unmarked) [Compound 4, (1H-Benzoimidazol-2-yl)-2-phenyl-3-p-tolylsulfanyl-propan-1-one]	> 5	–	–	> 5	–	2	–
Cc1ccc([S+]([O-])CC(C(=O)c2nc3ccccc3[nH]2)c2ccccc2)cc1 (centres unmarked) [Compound 5, (1H-Benzoimidazol-2-yl)-2-phenyl-3-(toluene-4-sulfinyl)-propan-1-one]	> 5	0.025	–	> 5	–	–	0.025
Cc1ccc(S(=O)(=O)CC(C(=O)c2nc3ccccc3[nH]2)c2ccc(F)cc2)cc1 (centres unmarked) [Compound 9, 1-(1H-Benzoimidazol-2-yl)-2-(4-fluoro-phenyl)-3-(toluene-4-sulfonyl)-propan-1-one]	> 5	0.014	> 5	–	105	–	0.015
O=C(c1nc2ccccc2[nH]1)C(CS(=O)(=O)c1ccc(Br)cc1)c1ccccc1 (centres unmarked) [Compound 11, 1-(1H-Benzoimidazol-2-yl)-3-(4-bromo-benzenesulfonyl)-2-phenyl-propan-1-one]	> 5	–	–	> 5	–	–	0.008
O=C(c1nc2ccccc2[nH]1)C(CS(=O)(=O)c1cccc2ccccc12)c1ccccc1 (centres unmarked) [Compound 12, 1-(1H-Benzoimidazol-2-yl)-3-(naphthalene-1-sulfonyl)-2-phenyl-propan-1-one]	> 5	–	> 5	> 5	–	–	0.011
Cc1ccc(S(=O)(=O)CC(C(=O)c2nc3cc(C)ccc3[nH]2)c2ccccc2)cc1 (centres unmarked) [Compound 13, (5-Methyl-1H-benzoimidazol-2-yl)-2-phenyl-3-(toluene-4-sulfonyl)-propan-1-one]	> 5	0.036	–	> 5	–	–	0.045
Cc1ccc(S(=O)(=O)CC(C(=O)c2nc3ccccc3[nH]2)c2ccccc2)cc1 (centres unmarked) [Compound 15, 1-(1H-Benzoimidazol-2-yl)-2-phenyl-3-(toluene-4-sulfonyl)-propan-1-one]	> 5	–	> 5	> 5	–	–	0.005
